Assay results: patent publication EP1007530B1, “6-O-SUBSTITUTED ERYTHROMYCIN COMPOUNDS AND METHOD FOR MAKING SAME” (ABBOTT LABORATORIES, priority 1996, dated 1997)

Columns and labels:
Test in all cases: In vitro assay of antibacterial activity (agar dilution MIC)
Format in all cases: cell-based
[1] = test system: Actinetobacter calcoaceticus CMX 669; settings: BHI agar, 35-37 °C, 20 to 24 hours, unit assumed
Protocol: (§1) Representative compounds of the present invention were assayed in vitro for antibacterial activity as follows: Twelve petri dishes containing successive aqueous dilutions of the test compound mixed with 10 mL of sterilized Brain Heart Infusion (BHI) agar (Difco 0418-01-5) were prepared. Each plate was inoculated with 1:100 (or 1:10 for slow-growing strains, such as Micrococcus and Streptococcus) dilutions of up to 32 different microorganisms, using a Steers replicator block. The inoculated plates were incubated at 35-37 °C for 20 to 24 hours, In addition, a control plate, using BHI agar containing no test compound, was prepared and incubated at the beginning and end of each test.
(§2) An additional plate containing a compound having known susceptibility patterns for the organisms being tested and belonging to the same antibiotic class as the test compound was also prepared and incubated as a further control, as well as to provide test-to-test comparability.
(§3) After incubation, each plate was visually inspected. The minimum inhibitory concentration (MIC) was defined as the lowest concentration of drug yielding no growth, a slight haze, or sparsely isolated colonies on the inoculum spot as compared to the growth control. […]

[2] = test system: Escherichia coli DC-2; settings: BHI agar, 35-37 °C, 20 to 24 hours, unit assumed
Protocol: as §1
as §2, with “comparability. Erythromycin A was used for this purpose.” for “comparability.”
as §3

[3] = test system: Pseudomonas aeruginosa DPHD-5263; settings: BHI agar, 35-37 °C, 20 to 24 hours, in µg/mL (unit assumed)
Protocol: as §1
as §2, with “comparability. Erythromycin A was used for this purpose.” for “comparability.”
as §3

[4] = test system: Staphylococcus epidermidis 3519; settings: BHI agar, 35-37 °C, 20 to 24 hours, unit assumed
Protocol: as §1
as §2, with “comparability. Erythromycin A was used for this purpose.” for “comparability.”
as §3

[5] = test system: Streptococcus pyogenes 930; settings: BHI agar, 35-37 °C, 20 to 24 hours, unit assumed
Protocol: as §1
as §2, with “comparability. Erythromycin A was used for this purpose.” for “comparability.”
as §3

[6] = test system: Staphylococcus aureus A-5278; settings: BHI agar, 35-37 °C, 20 to 24 hours, unit assumed
Protocol: as §1
as §2, with “comparability. Erythromycin A was used for this purpose.” for “comparability.”
as §3

[7] = test system: Pseudomonas aeruginosa K799/61; settings: BHI agar, 35-37 °C, 20 to 24 hours, unit assumed
Protocol: as §1
as §2, with “comparability. Erythromycin A was used for this purpose.” for “comparability.”
as §3

[8] = test system: Escherichia coli H560; settings: BHI agar, 35-37 °C, 20 to 24 hours, unit assumed
Protocol: as §1
as §2, with “comparability. Erythromycin A was used for this purpose.” for “comparability.”
as §3

[9] = test system: Pseudomonas capacia 2961; settings: BHI agar, 35-37 °C, 20 to 24 hours, in µg/mL (unit assumed)
Protocol: as §1
as §2, with “comparability. Erythromycin A was used for this purpose.” for “comparability.”
as §3

[10] = test system: Enterococcus faecium ATCC 8043; settings: BHI agar, 35-37 °C, 20 to 24 hours, unit assumed
Protocol: as §1
as §2, with “comparability. Erythromycin A was used for this purpose.” for “comparability.”
as §3

[11] = test system: Micrococcus luteus ATCC 9341; settings: BHI agar, 35-37 °C, 20 to 24 hours, unit assumed
Protocol: as §1
as §2, with “comparability. Erythromycin A was used for this purpose.” for “comparability.”
as §3

[12] = test system: Pseudomonas aeruginosa BMH10; settings: BHI agar, 35-37 °C, 20 to 24 hours, in µg/mL (unit assumed)
Protocol: as §1
as §2, with “comparability. Erythromycin A was used for this purpose.” for “comparability.”
as §3

[13] = test system: Streptococcus agalactiae CMX 508; settings: BHI agar, 35-37 °C, 20 to 24 hours, unit assumed
Protocol: as §1
as §2, with “comparability. Erythromycin A was used for this purpose.” for “comparability.”
as §3

[14] = test system: Escherichia coli SS; settings: BHI agar, 35-37 °C, 20 to 24 hours, unit assumed
Protocol: as §1
as §2, with “comparability. Erythromycin A was used for this purpose.” for “comparability.”
as §3

[15] = test system: Staphylococcus aureus CMX 553; settings: BHI agar, 35-37 °C, 20 to 24 hours, unit assumed
Protocol: as §1
as §2, with “comparability. Erythromycin A was used for this purpose.” for “comparability.”
as §3

[16] = test system: Staphylococcus aureus CMX 642A; settings: BHI agar, 35-37 °C, 20 to 24 hours, unit assumed
Protocol: as §1
as §2, with “comparability. Erythromycin A was used for this purpose.” for “comparability.”
as §3

[17] = test system: Escherichia coli JUHL; settings: BHI agar, 35-37 °C, 20 to 24 hours, in µg/mL (unit assumed)
Protocol: as §1
as §2, with “comparability. Erythromycin A was used for this purpose.” for “comparability.”
as §3

[18] = test system: Pseudomonas aeruginosa K799/WT; settings: BHI agar, 35-37 °C, 20 to 24 hours, unit assumed
Protocol: as §1
as §2, with “comparability. Erythromycin A was used for this purpose.” for “comparability.”
as §3

[19] = test system: Escherichia coli KNK 437; settings: BHI agar, 35-37 °C, 20 to 24 hours, unit assumed
Protocol: as §1
as §2, with “comparability. Erythromycin A was used for this purpose.” for “comparability.”
as §3

[20] = test system: Staphylococcus aureus NCTC10649M; settings: BHI agar, 35-37 °C, 20 to 24 hours, unit assumed
Protocol: as §1
as §2, with “comparability. Erythromycin A was used for this purpose.” for “comparability.”
as §3

[21] = test system: Candida albicans CCH 442; settings: BHI agar, 35-37 °C, 20 to 24 hours, unit assumed
Protocol: as §1
as §2, with “comparability. Erythromycin A was used for this purpose.” for “comparability.”
as §3

[22] = test system: Streptococcus pyogenes PIU 2548; settings: BHI agar, 35-37 °C, 20 to 24 hours, unit assumed
Protocol: as §1
as §2, with “comparability. Erythromycin A was used for this purpose.” for “comparability.”
as §3

[23] = test system: Streptococcus bovis A-5169; settings: BHI agar, 35-37 °C, 20 to 24 hours, unit assumed
Protocol: as §1
as §2, with “comparability. Erythromycin A was used for this purpose.” for “comparability.”
as §3

[24] = test system: Staphylococcus aureus 1775; settings: BHI agar, 35-37 °C, 20 to 24 hours, unit assumed
Protocol: as §1
as §2, with “comparability. Erythromycin A was used for this purpose.” for “comparability.”
as §3

[25] = test system: Enterobacter aerogenes ATCC 13048; settings: BHI agar, 35-37 °C, 20 to 24 hours, unit assumed
Protocol: as §1
as §2, with “comparability. Erythromycin A was used for this purpose.” for “comparability.”
as §3

[26] = test system: Pseudomonas aeruginosa 5007; settings: BHI agar, 35-37 °C, 20 to 24 hours, unit assumed
Protocol: as §1
as §2, with “comparability. Erythromycin A was used for this purpose.” for “comparability.”
as §3

[27] = test system: Providencia struartii CMX 640; settings: BHI agar, 35-37 °C, 20 to 24 hours, unit assumed
Protocol: as §1
as §2, with “comparability. Erythromycin A was used for this purpose.” for “comparability.”
as §3

[28] = test system: Staphylococcus aureus ATCC 6538P; settings: BHI agar, 35-37 °C, 20 to 24 hours, unit assumed
Protocol: as §1
as §2, with “comparability. Erythromycin A was used for this purpose.” for “comparability.”
as §3

[29] = test system: Klebsiella pneumoniae ATCC 8045; settings: BHI agar, 35-37 °C, 20 to 24 hours, unit assumed
Protocol: as §1
as §2, with “comparability. Erythromycin A was used for this purpose.” for “comparability.”
as §3

[30] = test system: Micrococcus luteus ATCC 4698; settings: BHI agar, 35-37 °C, 20 to 24 hours, unit assumed
Protocol: as §1
as §2, with “comparability. Erythromycin A was used for this purpose.” for “comparability.”
as §3

[31] = test system: Pseudomonas aeruginosa DPHD-2862; settings: BHI agar, 35-37 °C, 20 to 24 hours, unit assumed
Protocol: as §1
as §2, with “comparability. Erythromycin A was used for this purpose.” for “comparability.”
as §3

[32] = test system: Mycobacterium smegmatis ATCC 114; settings: BHI agar, 35-37 °C, 20 to 24 hours, unit assumed
Protocol: as §1
as §2, with “comparability. Erythromycin A was used for this purpose.” for “comparability.”
as §3

[33] = test system: Streptococcus pyogenes EES61; settings: BHI agar, 35-37 °C, 20 to 24 hours, unit assumed
Protocol: as §1
as §2, with “comparability. Erythromycin A was used for this purpose.” for “comparability.”
as §3

Molecule | MIC [1] [µg/mL] | MIC [2] [µg/mL] | MIC [3] | MIC [4] [µg/mL] | MIC [5] [µg/mL] | MIC [6] [µg/mL] | MIC [7] [µg/mL] | MIC [8] [µg/mL] | MIC [9] | MIC [10] [µg/mL] | MIC [11] [µg/mL] | MIC [12] | MIC [13] [µg/mL] | MIC [14] [µg/mL] | MIC [15] [µg/mL] | MIC [16] [µg/mL] | MIC [17] | MIC [18] [µg/mL] | MIC [19] [µg/mL] | MIC [20] [µg/mL] | other results
Compound of Formula (XII): X is-=N-O-(1-isopropoxycyclohexyl), R is allyl, R^p is trimethylsilyl [Example 1B] | 50 | > 100 | > 100 | 0.39 | > 100 | > 100 | 6.2 | 100 | > 100 | 0.2 | 0.2 | > 100 | 0.1 | 3.1 | 1.56 | 1.56 | > 100 | > 100 | > 100 | 3.1 | MIC [21]: > 100 µg/mL; MIC [22]: 6.2 µg/mL; MIC [23]: 0.02 µg/mL; MIC [24]: > 100 µg/mL; MIC [25]: > 100 µg/mL; MIC [26]: > 100 µg/mL; MIC [27]: > 100 µg/mL; MIC [28]: 0.78 µg/mL; MIC [29]: > 100 µg/mL; MIC [30]: 3.1 µg/mL; MIC [31]: > 100 µg/mL
Compound of Formula (X): X is =N-OH, R is allyl [Example 1C] | 50 | > 100 | > 100 | 0.39 | > 100 | > 100 | 6.2 | 100 | > 100 | 0.2 | 0.1 | > 100 | 0.01 | 0.78 | 0.78 | 1.56 | 100 | > 100 | > 100 | 0.78 | MIC [21]: > 100 µg/mL; MIC [22]: 3.1 µg/mL; MIC [23]: 0.01 µg/mL; MIC [24]: > 100 µg/mL; MIC [25]: > 100 µg/mL; MIC [26]: > 100 µg/mL; MIC [27]: > 100 µg/mL; MIC [28]: 0.78 µg/mL; MIC [32]: 0.2 µg/mL; MIC [29]: > 100 µg/mL; MIC [30]: 1.56 µg/mL; MIC [31]: > 100 µg/mL
CC[C@H]1OC(=O)[C@H](C)[C@@H](O[C@H]2C[C@@](C)(OC)[C@@H](O)[C@H](C)O2)[C@H](C)[C@@H](O[C@@H]2O[C@H](C)C[C@H](N(C)C)[C@H]2O)[C@](C)(OCC=NO)C[C@@H](C)C(=O)[C@H](C)[C@@H](O)[C@]1(C)O [Example 12, Compound of Formula (X): X is =O, R is -CH2-CH=N-OH] | 12.5 | > 100 | > 100 | 0.39 | > 100 | > 100 | 1.56 | 25 | > 100 | 0.1 | 0.05 | > 100 | 0.05 | 0.78 | 0.39 | 0.39 | 50 | > 100 | 100 | 0.39 | MIC [33]: 0.05 µg/mL; MIC [21]: > 100 µg/mL; MIC [22]: 12.5 µg/mL; MIC [23]: 0.05 µg/mL; MIC [24]: > 100 µg/mL; MIC [25]: > 100 µg/mL; MIC [26]: > 100 µg/mL; MIC [27]: > 100 µg/mL; MIC [28]: 0.39 µg/mL; MIC [32]: 0.78 µg/mL; MIC [30]: 0.78 µg/mL; MIC [31]: > 100 µg/mL
